Measurements from the supplement of paper PMC10307832.

How the values were obtained:
Assay in all cases: relative viability (nuclei count vs DMSO), 5 days (fraction); higher = more cells survive
GW-2580 + Luminespib = compound: COC1=CC=C(C=C1)COC2=C(C=C(C=C2)CC3=CN=C(N=C3N)N)OC [GW-2580] + CCNC(=O)c1noc(-c2cc(C(C)C)c(O)cc2O)c1-c1ccc(CN2CCOCC2)cc1 [Luminespib] (partner 0.01 µM)
How it was run: (§1)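 Relative viability equals treated-well nuclei counts divided by vehicle-well nuclei counts. Counts came from 4× images of lung cancer cell lines grown in 1536-well plates for 5 days after pin-tool dosing on the day after seeding. Dosing used one drug alone or a fixed anchor-drug dose plus five library-drug doses (not always all listed) in √10 steps, and values are medians of duplicate plates.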

Fedratinib + Palbociclib = compound: Cc1cnc(Nc2ccc(OCCN3CCCC3)cc2)nc1Nc1cccc(S(=O)(=O)NC(C)(C)C)c1 [Fedratinib] + CC(=O)c1c(C)c2cnc(Nc3ccc(N4CCNCC4)cn3)nc2n(C2CCCC2)c1=O [Palbociclib] (partner 0.5 µM)
How it was run: as §1

Fedratinib + Vorinostat = compound: Cc1cnc(Nc2ccc(OCCN3CCCC3)cc2)nc1Nc1cccc(S(=O)(=O)NC(C)(C)C)c1 [Fedratinib] + O=C(CCCCCCC(=O)Nc1ccccc1)NO [Vorinostat] (partner 1 µM)
How it was run: as §1

Fedratinib + OSI-027 = compound: Cc1cnc(Nc2ccc(OCCN3CCCC3)cc2)nc1Nc1cccc(S(=O)(=O)NC(C)(C)C)c1 [Fedratinib] + COc1cccc2cc(-c3nc([C@H]4CC[C@H](C(=O)O)CC4)n4ncnc(N)c34)[nH]c12 [OSI-027] (partner 0.5 µM)
How it was run: as §1

GW-2580 + OSI-027 = compound: COC1=CC=C(C=C1)COC2=C(C=C(C=C2)CC3=CN=C(N=C3N)N)OC [GW-2580] + COc1cccc2cc(-c3nc([C@H]4CC[C@H](C(=O)O)CC4)n4ncnc(N)c34)[nH]c12 [OSI-027] (partner 0.5 µM)
How it was run: as §1

UMC-11
relative viability (GW-2580 + Luminespib; first compound 0.08 µM): 0.992 | relative viability (GW-2580 + Luminespib; first compound 0.8 µM): 1.1 | relative viability (GW-2580 + Luminespib; first compound 2.53 µM): 1.12 | relative viability (GW-2580 + Luminespib; first compound 8 µM): 1.16 | relative viability (Fedratinib + Palbociclib; first compound 0.1 µM): 0.345 | relative viability (Fedratinib + Palbociclib; first compound 0.3162 µM): 0.311 | relative viability (Fedratinib + Palbociclib; first compound 1 µM): 0.301 | relative viability (Fedratinib + Vorinostat; first compound 0.1 µM): 0.377 | relative viability (Fedratinib + Vorinostat; first compound 0.3162 µM): 0.357 | relative viability (Fedratinib + Vorinostat; first compound 1 µM): 0.241 | relative viability (Fedratinib + OSI-027; first compound 0.1 µM): 0.473 | relative viability (Fedratinib + OSI-027; first compound 0.3162 µM): 0.452 | relative viability (Fedratinib + OSI-027; first compound 1 µM): 0.373 | relative viability (GW-2580 + OSI-027; first compound 0.08 µM): 0.531 | relative viability (GW-2580 + OSI-027; first compound 0.8 µM): 0.508 | relative viability (GW-2580 + OSI-027; first compound 2.53 µM): 0.515 | relative viability (GW-2580 + OSI-027; first compound 8 µM): 0.439
